Source: patent publication EP4737445A1, “NOVEL SATURATED HETEROCYCLE-SUBSTITUTED HETEROARYL-CARBONOHYDRAZONOYL DICYANIDE COMPOUND AND USE THEREOF” (Korea Institute of Science and Technology, priority 2023, dated 2025)

Legend:
TauP301L-BiFC Tg mice = test: Novel Objective Recognition test in tau transgenic mice; format: in vivo; conditions: oral 10 mg/kg, 5 times per week, 19 weeks, Vehicle = 0.48
Experimental: Compounds 6, 16, and 20 were orally administered to 8.2-month-old tau transgenic animal model (TauP301L-BiFC tg mouse) 5 times per week at a concentration of 10 mg/kg for a total of 19 weeks (n=10/group). WT mice of similar age to the vehicle-treated group of TauP301L-BiFC mice were used as a control group. Three types of behavioral experiments (Novel Objective Recognition test, Y-maze test, Balance beam test) were performed to confirm the improvement effects on cognitive function and motor function by drug administration, and these experiments and their results were as follows. • (1) Novel Objective Recognition test: To evaluate the object recognition memory ability of mice, two identical objects (Old-Old) were explored for 10 minutes in a 40 cm × 40 cm box. The next day, one object was replaced with a new object (Old-New) and exploration was performed again for 10 minutes, and then the time showing exploratory behavior toward the existing object and the new object was measured. Mice with normal object recognition ability (Recognition index) spent more time exploring the newly changed object, whereas mice with low object recognition ability could not distinguish the new object. The object recognition ability (Recognition index) values were as follows: (RI, Vehicle= 0.48, n.s., #20= 0.59, p<0.05, #6= 0.66, p<0.0001, #16= 0.58, p<0.05). In TauP301L-BiFC mice, the object recognition function improvement effect by drugs #20, #6, and #16 compared to the vehicle group was confirmed. • (2) Y-maze test: A Y-maze test was performed to evaluate the spatial working memory ability of mice. Whether the mice entered the three arms of the Y-maze by spontaneous alternation behavior for a certain period of time was measured through video recording. An increase in the spontaneous alternation ratio was considered as improved working memory ability. […] The time taken to cross a rod with a height of 50 cm and length of 80 cm and the number of times the feet went outside the rod during crossing were measured. […]

tau = target: T1, tau (Homo sapiens, UniProt P10636, P618L); test: Tau phosphorylation immunoblot of RIPA-soluble brain lysates; format: in vivo; conditions: TauP301L-BiFC mice, oral 10 mg/kg, 19 weeks, vehicle = 100%
T1 construct: BiFC fluorescent-protein fragments (two complementary halves); from tissue; host or cells: brain of TauP301L-BiFC transgenic mice
T1 sequence (P10636 1-441 isoform P10636-8 P301L): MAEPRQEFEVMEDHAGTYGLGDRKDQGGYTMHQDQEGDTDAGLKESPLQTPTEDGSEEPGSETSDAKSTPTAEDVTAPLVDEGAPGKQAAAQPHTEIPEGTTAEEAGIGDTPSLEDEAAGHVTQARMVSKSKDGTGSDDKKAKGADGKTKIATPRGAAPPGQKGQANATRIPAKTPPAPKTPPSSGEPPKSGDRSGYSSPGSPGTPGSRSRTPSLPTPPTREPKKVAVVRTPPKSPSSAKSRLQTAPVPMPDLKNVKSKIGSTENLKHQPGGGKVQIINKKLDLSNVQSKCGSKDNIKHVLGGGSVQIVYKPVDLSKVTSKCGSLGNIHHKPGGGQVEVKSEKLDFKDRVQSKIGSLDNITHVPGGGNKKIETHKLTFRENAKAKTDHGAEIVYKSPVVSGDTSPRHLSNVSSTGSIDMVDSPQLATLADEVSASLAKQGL
Experimental: [2] To verify the tau pathology inhibitory efficacy of the drug confirmed through brain tissue imaging via brain lysate immunoblot, brain lysates were separated and purified, and immunoblot using tau antibody was performed in soluble and insoluble fractions. The brain was weighed, and RIPA lysis buffer containing the corresponding dose of protease and phosphatase inhibitors was added to the brain tissue. The tissue was then disrupted using a homogenizer and incubated at 4°C for 2 hours, and then centrifuged at 13,200 rpm at 4°C for 20 minutes. After centrifugation, the supernatant was collected as a RIPA-soluble fraction and stored at -80°C. To prepare the RIPA-insoluble fraction, the remaining pellet was washed once with RIPA lysis buffer containing 1 M sucrose, and then 2% SDS solution (1 mL per 1 g of tissue) was added and incubated at room temperature for 1 hour. Thereafter, the mixture was centrifuged at 13,200 rpm for 1 minute at room temperature, and the supernatant was collected as a RIPA-insoluble fraction and stored at -80°C.
For tau immunoblot analysis, 20 µg of brain tissue RIPA-soluble sample was separated on a 10% SDS-PAGE gel and transferred to a PVDF membrane, and RIPA-insoluble samples were diluted 10-fold in 2% SDS solution and 20 µL of each sample was loaded on an SDS-PAGE gel. The total tau and phosphorylated tau levels were detected by Tau5, which is an anti-tau antibody, and pS199 and pS396, which are anti-phosphorylated tau antibodies. ImageJ software (NIH) was used to quantify band intensity.

SMILES | object recognition ability (Recognition index, RI) (TauP301L-BiFC Tg mice) | pS199 tau phosphorylation immunoblot (tau) [%] | pS396 tau phosphorylation immunoblot (tau) [%]
Cn1c(N2CCOCC2)nc2cc(NN=C(C#N)C#N)ccc21 [Compound 6, (1-methyl-2-morpholino-1H-benzo[d]imidazol-5-yl)carbonohydrazonoyl dicyanide] | 0.66 | 48 | 60
CC1COCCN1c1nc2ccc(NN=C(C#N)C#N)cc2o1 (stereo not drawn) [Compound 16, (2-(3-methylmorpholino)benzo[d]oxazol-6-yl)carbonohydrazonoyl dicyanide] | 0.58 | 24 | 40
N#CC(C#N)=NNc1ccc2nc(N3C4CCC3COC4)oc2c1 [Compound 20, (2-(3-oxa-8-azabicyclo[3.2.1]octan-8-yl)benzo[d]oxazol-6-yl)carbonohydrazonoyl dicyanide] | 0.59 | 60 | 71
